# Test results reported in publication PMC10960705 (Cell chemical biology, 2023).
# Assays:
# Format in all cases: cell-based
# KRAS^G12C = KRAS^G12C (Homo sapiens, UniProt P01116, G12C); assay: TMT-ABPP competition with DBIA probe in HCC44 lysate, […], […] hr
# [1] = target: peptidyl-prolyl cis/trans isomerase PIN1 (Homo sapiens, UniProt Q13526); assay: TMT-ABPP dose-response competition with DBIA probe in lysate
# VLDLR = VLDLR (Homo sapiens, UniProt P98155); assay: TMT-ABPP competition with DBIA probe in lysate
# Sequence of peptidyl-prolyl cis/trans isomerase PIN1 (Q13526 whole entry): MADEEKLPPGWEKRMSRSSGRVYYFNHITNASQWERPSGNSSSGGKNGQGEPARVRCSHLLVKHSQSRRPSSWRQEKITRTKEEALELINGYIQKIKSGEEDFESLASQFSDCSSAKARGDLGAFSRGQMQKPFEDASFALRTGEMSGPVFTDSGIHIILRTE
smiles,measurement,setting,value
C=CC(=O)N1CCN(c2ncnc3c(F)c(-c4c(O)cccc4F)c(Cl)cc23)CC1 [ARS-1620],"TMT-ABPP competition with DBIA probe in HCC44 lysate, 50 μM, 1 hr",KRAS^G12C,2.7 competition ratio (CR) at 50 μM
CC(C)(C)CN(C(=O)CCl)C1CCS(=O)(=O)C1 (stereo not drawn) [Sulfopin],TMT-ABPP dose-response competition with DBIA probe in lysate,[1],Sulfopin is the most potent among the four whereas CL41 is the least
"C=CC(=O)N1CCCC(n2ccnn2)CC1 (stereo not drawn) [AC19, 1-(4-(1H-1,2,3-triazol-1-yl)azepan-1-yl)prop-2-en-1-one]",TMT-ABPP competition with DBIA probe in lysate,VLDLR,reside in their respective EGF-like domains and were all exclusively and significantly engaged by AC19
